Values quoted from earlier work in PubChem BioAssay AID1259409 (Chemical Carcinogenesis Research Information System (CCRIS), 2018).

Tested on: rodent chemically induced tumor inhibition, incidence and multiplicity
Test: CCRIS tumor inhibitor studies

In the case of CC(=O)OC/C=C(C)/C=C/C=C(C)/C=C/C1=C(C)CCCC1(C)C, the “tumour outcome (control, treated, inhibition, significance)” value (Carcinogen: 1,2-DIMETHYLHYDRAZINE, 540-73-8, Dose [Inhibitor]: 0.8 MMOL/KG DIET DAILY STARTING 12 D AFTER CARCINOGEN TREATMENT THROUGH ABOUT 8 MO AFTER CARCINOGEN DOSE (STUDY DURATION, Route [Inhibitor]: ORAL, Species: RAT, Strain/Sex: F344/MALE, Target Tissue: Type of Lesion: COLON: ADENOCARCINOMA, Dose [Carcinogen]: 150 MG/KG BW ONCE, Promoter: NONE USED) is listed as 10/39 (26%), 7/30 (23%), 12%, not significant, the “tumour outcome (control, treated, inhibition, significance)” value (Carcinogen: 1,2-DIMETHYLHYDRAZINE, 540-73-8, Dose [Inhibitor]: 0.8 MMOL/KG DIET DAILY STARTING 12 D AFTER CARCINOGEN TREATMENT THROUGH ABOUT 8 MO AFTER CARCINOGEN DOSE (STUDY DURATION, Route [Inhibitor]: ORAL, Species: RAT, Strain/Sex: F344/MALE, Target Tissue: Type of Lesion: COLON: ADENOMA, Dose [Carcinogen]: 150 MG/KG BW ONCE, Promoter: NONE USED) is listed as 23/39 (59%), 9/30 (30%), 49%, p<0.05 and the “tumour outcome (control, treated, inhibition, significance)” value (Carcinogen: 7,12-DIMETHYLBENZ[A]ANTHRACENE, 57-97-6, Dose [Inhibitor]: 0, 328 MG/KG OF DIET FROM DAY 34 TO 54 OF AGE (STUDY DURATION: 200 D), Route [Inhibitor]: ORAL, Species: RAT, Strain/Sex: SPRAGUE-DAWLEY/FEMALE, Target Tissue: Type of Lesion: MAMMARY GLAND: ADENOCARCINOMA, Dose [Carcinogen]: 15 MG/RAT ONCE AT 55 D OF AGE, Promoter: NONE USED) is listed as 93%, 97%, -4%, not calculated. The “tumour outcome (control, treated, inhibition, significance)” value (Carcinogen: 7,12-DIMETHYLBENZ[A]ANTHRACENE, 57-97-6, Dose [Inhibitor]: 0, 328 MG/KG OF DIET FROM DAY 34 TO 54 OF AGE (STUDY DURATION: 200 D), Route [Inhibitor]: ORAL, Species: RAT, Strain/Sex: SPRAGUE-DAWLEY/FEMALE, Target Tissue: Type of Lesion: MAMMARY GLAND: BENIGN TUMORS, Dose [Carcinogen]: 15 MG/RAT ONCE AT 55 D OF AGE, Promoter: NONE USED) was 28%, 40%, -43%, not calculated, the “tumour outcome (control, treated, inhibition, significance)” value (Carcinogen: 7,12-DIMETHYLBENZ[A]ANTHRACENE, 57-97-6, Dose [Inhibitor]: 0, 350 MG/KG 1/WK FROM 40-90 D OF AGE THEN 0, 250 MG/KG 1/WK FROM 90-180 D OF AGE AND 0, 200 MG/KG 1/WK FROM 180-240 D O, Dose [Inhibitor]: 0, 350 MG/KG 1/WK FROM 40-90 D OF AGE THEN 0, 250 MG/KG 1/WK FROM 90-180 D OF AGE AND 0, 200 MG/KG 1/WK FROM 180-240 D O, Route [Inhibitor]: INTRAPERITONEAL, Species: RAT, Strain/Sex: SPRAGUE DAWLEY/FEMALE, Target Tissue: Type of Lesion: MAMMARY GLAND: ADENOCARCINOMA, FIBROADENOMA, Dose [Carcinogen]: 5 MG IN 0.2 ML SESAME OIL 1/2 D FOR 12 D BEGINNING AT 50 D OF AGE, Promoter: NONE USED) was 100%, 48%, 52%, p<0.001 and the “tumour outcome (control, treated, inhibition, significance)” value (Carcinogen: 7,12-DIMETHYLBENZ[A]ANTHRACENE, 57-97-6, Dose [Inhibitor]: 0.2 MILLIMOLAR IN DIET DAILY FOR 27 WK STARTING 3 D AFTER LAST CARCINOGEN DOSE AND CONTINUING THE END OF THE STUDY (STUD, Route [Inhibitor]: ORAL, Species: MOUSE, Strain/Sex: BDF/FEMALE, Target Tissue: Type of Lesion: MAMMARY GLAND: ADENOCARCINOMA, Dose [Carcinogen]: 1 MG/WK FOR 6 WK, Promoter: NONE USED) was 22/75 (29%), 31/75 (41%), -41%, not significant. The “tumour outcome (control, treated, inhibition, significance)” value (Carcinogen: 7,12-DIMETHYLBENZ[A]ANTHRACENE, 57-97-6, Dose [Inhibitor]: 0.2 MILLIMOLAR IN DIET DAILY FOR 27 WK STARTING 3 D AFTER LAST CARCINOGEN DOSE AND CONTINUING THROUGH THE END OF THE STU, Route [Inhibitor]: ORAL, Species: MOUSE, Strain/Sex: BDF/FEMALE, Target Tissue: Type of Lesion: MAMMARY GLAND: ADENOCANTHOMA, Dose [Carcinogen]: 1 MG/WK FOR 6 WK, Promoter: NONE USED) was 20/75 (27%), 19/75 (25%), 7%, not significant, the “tumour outcome (control, treated, inhibition, significance)” value (Carcinogen: 7,12-DIMETHYLBENZ[A]ANTHRACENE, 57-97-6, Dose [Inhibitor]: 68 MG/KG DIET DAILY FOR 11 WK STARTING 3 D AFTER CARCINOGEN TREATMENT (STUDY DURATION: 11 WK), Route [Inhibitor]: ORAL, Species: RAT, Strain/Sex: SPRAGUE-DAWLEY/FEMALE, Target Tissue: Type of Lesion: MAMMARY GLAND: CARCINOMA, Dose [Carcinogen]: 20 MG/ML SESAME OIL ONCE AT 53 D OF AGE, Promoter: NONE USED) was 100%, 92%, 8%, not significant and the “tumour outcome (control, treated, inhibition, significance)” value (Carcinogen: 7,12-DIMETHYLBENZ[A]ANTHRACENE, 57-97-6, Dose [Inhibitor]: 204 MG/KG DIET DAILY FOR 12 WK STARTING 3 D AFTER CARCINOGEN TREATMENT (STUDY DURATION: 12 WK), Route [Inhibitor]: ORAL, Species: RAT, Strain/Sex: SPRAGUE-DAWLEY/FEMALE, Target Tissue: Type of Lesion: MAMMARY GLAND: CARCINOMA, Dose [Carcinogen]: 10 MG/ML SESAME OIL ONCE AT 53 D OF AGE, Promoter: NONE USED) was 90%, 74%, 18%, not significant. For the same compound, the “tumour outcome (control, treated, inhibition, significance)” value (Carcinogen: 7,12-DIMETHYLBENZ[A]ANTHRACENE, 57-97-6, Dose [Inhibitor]: 250 MG/KG DIET DAILY FOR 28 WK STARTING 2 WK BEFORE START OF CARCINOGEN TREATMENT AND CONTINUING FOR DURATION OF STUDY (, Route [Inhibitor]: ORAL, Species: RAT, Strain/Sex: SPRAGUE-DAWLEY/FEMALE, Target Tissue: Type of Lesion: MAMMARY GLAND: TUMOR, Dose [Carcinogen]: 5 MG IN CORN OIL 1/WK FOR 3 WK, Promoter: NONE USED) was 90%, 47%, 48%, p<0.001, the “tumour outcome (control, treated, inhibition, significance)” value (Carcinogen: 7,12-DIMETHYLBENZ[A]ANTHRACENE, 57-97-6, Dose [Inhibitor]: 328 MG/KG DIET DAILY FOR 20 WK STARTING 3 D AFTER CARCINOGEN TREATMENT (STUDY DURATION: 26 WK), Route [Inhibitor]: ORAL, Species: RAT, Strain/Sex: SPRAGUE-DAWLEY/FEMALE, Target Tissue: Type of Lesion: MAMMARY GLAND: CARCINOMA, Dose [Carcinogen]: 5 MG/ML SESAME OIL ONCE AT 53 D OF AGE, Promoter: NONE USED) was 85%, 60%, 29%, not significant and the “tumour outcome (control, treated, inhibition, significance)” value (Carcinogen: DIMETHYLBENZ[A]ANTHRACENE, 57-97-6, Dose [Inhibitor]: 0, 328 MG/KG DIET IN VEHICLE 2 MO PRIOR TO CARCINOGEN DOSE AND CONTINUED UNTIL CARCINOGEN ADMINISTRATION (STUDY DURATION, Route [Inhibitor]: ORAL, Species: RAT, Strain/Sex: CD-1/FEMALE, Target Tissue: Type of Lesion: MAMMARY GLAND: ADENOCARCINOMA, Dose [Carcinogen]: 20 MG IN 1 ML SESAME OIL ONCE, Promoter: NONE USED) was 63%, 57%, 10%, not calculated. For the same compound, the “tumour outcome (control, treated, inhibition, significance)” value (Carcinogen: DIMETHYLBENZ[A]ANTHRACENE, 57-97-6, Dose [Inhibitor]: 0, 328 MG/KG DIET IN VEHICLE 2 MO PRIOR TO CARCINOGEN DOSE AND CONTINUED UNTIL CARCINOGEN ADMINISTRATION (STUDY DURATION, Route [Inhibitor]: ORAL, Species: RAT, Strain/Sex: CD-1/FEMALE, Target Tissue: Type of Lesion: MAMMARY GLAND: BENIGN TUMOR, Dose [Carcinogen]: 20 MG IN 1 ML SESAME OIL ONCE, Promoter: NONE USED) was 17%, 50%, -194%, p<0.05, the “tumour outcome (control, treated, inhibition, significance)” value (Carcinogen: ETHYLNITROSOUREA, 759-73-9, Dose [Inhibitor]: 0, 300000 IU KG IN 1:20 (VOLUME: VOLUME) SUNFLOWER OIL IN DIET 5 D/WK FOR LIFE (STUDY DURATION: 319 D), Route [Inhibitor]: ORAL, Species: RAT, Strain/Sex: ALBINO/MALE,FEMALE, Target Tissue: Type of Lesion: NERVOUS SYSTEM: SCHWANNOMA, Dose [Carcinogen]: 75 MG/KG IN SALINE BY INTRAVENOUS INJECTION ONCE 21 D AFTER CONCEPTION) was 37/89 (42%), 14/50 (28%), 33%, not calculated and the “tumour outcome (control, treated, inhibition, significance)” value (Carcinogen: ETHYLNITROSOUREA, 759-73-9, Dose [Inhibitor]: 0, 300000 IU/KG IN 1:20 (VOLUME: VOLUME) SUNFLOWER OIL IN DIET 5 D/WK FOR LIFE (STUDY DURATION: 319 D), Route [Inhibitor]: ORAL, Species: RAT, Strain/Sex: ALBINO/MALE,FEMALE, Target Tissue: Type of Lesion: BRAIN: GLIOMA OR ASTROCYTOMA, Dose [Carcinogen]: 75 MG/KG IN SALINE BY INTRAVENOUS INJECTION ONCE 21 D AFTER CONCEPTION) was 54/89 (61%), 38/50 (76%), -25%, not calculated. The “tumour outcome (control, treated, inhibition, significance)” value (Carcinogen: ETHYLNITROSOUREA, 759-73-9, Dose [Inhibitor]: 0, 300000 IU/KG IN 1:20 (VOLUME: VOLUME) SUNFLOWER OIL IN DIET 5 D/WK FOR LIFE (STUDY DURATION: 319 D), Route [Inhibitor]: ORAL, Species: RAT, Strain/Sex: ALBINO/MALE,FEMALE, Target Tissue: Type of Lesion: KIDNEY: MESENCHYMAL TUMOR OR ADENOCARCINOMA, Dose [Carcinogen]: 75 MG/KG IN SALINE BY INTRAVENOUS INJECTION ONCE 21 D AFTER CONCEPTION) was 33/89 (37%), 14/50 (28%), 24%, not calculated, the “tumour outcome (control, treated, inhibition, significance)” value (Carcinogen: ETHYLNITROSOUREA, 759-73-9, Dose [Inhibitor]: 0, 300000 IU/KG IN 1:20 (VOLUME: VOLUME) SUNFLOWER OIL IN DIET 5 D/WK FOR LIFE (STUDY DURATION: 319 D), Route [Inhibitor]: ORAL, Species: RAT, Strain/Sex: ALBINO/MALE,FEMALE, Target Tissue: Type of Lesion: SPINAL CORD: TUMOR, Dose [Carcinogen]: 75 MG/KG IN SALINE BY INTRAVENOUS INJECTION ONCE 21 D AFTER CONCEPTION) was 55/89 (62%), 26/50 (52%), 16%, not calculated and the “tumour outcome (control, treated, inhibition, significance)” value (Carcinogen: METHYLNITROSOUREA, 684-93-5, Dose [Inhibitor]: 0, 328 MG/KG DIET IN VEHICLE 2 MO PRIOR TO CARCINOGEN DOSE AND CONTINUED UNTIL CARCINOGEN ADMINISTRATION (STUDY DURATION, Route [Inhibitor]: ORAL, Species: RAT, Strain/Sex: CD-1/FEMALE, Target Tissue: Type of Lesion: MAMMARY GLAND: ADENOCARCINOMA, Dose [Carcinogen]: 50 MG/KG BW ONCE, Promoter: NONE USED) was 57%, 72%), -26%, not calculated. For the same compound, the “tumour outcome (control, treated, inhibition, significance)” value (Carcinogen: METHYLNITROSOUREA, 684-93-5, Dose [Inhibitor]: 0, 328 MG/KG DIET IN VEHICLE 2 MO PRIOR TO CARCINOGEN DOSE AND CONTINUED UNTIL CARCINOGEN ADMINISTRATION (STUDY DURATION, Route [Inhibitor]: ORAL, Species: RAT, Strain/Sex: CD-1/FEMALE, Target Tissue: Type of Lesion: MAMMARY GLAND: BENIGN TUMOR, Dose [Carcinogen]: 50 MG/KG BW ONCE, Promoter: NONE USED) was 10%, 21%, -110%, not calculated.
